As usually defined, the IC50 is the concentration at which inhibition is half-maximal.

For one experiment, the target named is T1, hEP2 (Homo sapiens, UniProt P43116).
T1 construct: expressed in transfected cells; host or cells: HEK293
The experiment is described as follows: hEP2 cAMP assay. The experiment is classed as cell-based. The following applies: HEK293 cells overexpressing hEP2; PGE2 agonist 400 pM; graded per Table 21; read-out: IC50 (nM) EP2 cAMP. The method, boiled down: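 HEK293 cells overexpressing hEP2, serum-starved 4 h, then 1,000 cells/well treated with compound (10 μM–0.001 nM) plus 400 pM PGE2 (about EC50-80) in HBSS buffer with 0.5 mM IBMX for 12 min at room temperature. cAMP measured by TR-FRET (665/615 nm) as % of DMSO control; IC50 from 4-parameter fit, median of repeats.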
On the technique in general: Cyclic AMP is a second messenger, typically raised through Gs and lowered through Gi signalling.

Another experiment deals with T2, hEP4 (Homo sapiens, UniProt P35408).
T2 construct: expressed in transfected cells; host or cells: HEK293
T2 sequence (P35408 whole entry): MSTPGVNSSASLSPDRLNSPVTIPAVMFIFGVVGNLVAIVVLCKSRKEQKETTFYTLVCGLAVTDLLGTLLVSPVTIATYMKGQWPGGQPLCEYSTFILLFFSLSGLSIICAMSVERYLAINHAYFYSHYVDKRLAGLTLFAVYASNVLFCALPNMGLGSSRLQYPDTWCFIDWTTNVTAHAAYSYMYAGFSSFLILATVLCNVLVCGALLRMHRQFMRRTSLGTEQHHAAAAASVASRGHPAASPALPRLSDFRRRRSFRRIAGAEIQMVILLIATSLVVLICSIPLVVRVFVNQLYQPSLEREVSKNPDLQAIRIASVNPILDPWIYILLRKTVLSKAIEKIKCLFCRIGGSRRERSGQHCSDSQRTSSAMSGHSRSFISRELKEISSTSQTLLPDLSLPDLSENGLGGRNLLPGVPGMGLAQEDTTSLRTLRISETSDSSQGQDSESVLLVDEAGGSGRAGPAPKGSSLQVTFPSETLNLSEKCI
The experiment in a line: hEP4 cAMP assay. Type of experiment: cell-based. Conditions: HEK293 cells overexpressing hEP4; PGE2 agonist 20 nM; graded per Table 21; read-out: IC50 (nM) EP4 cAMP. The essentials:
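HEK293 cells overexpressing hEP4, starved 4 h, were treated with compound (10 μM-0.001 nM) plus 20 nM PGE2 (EC50-80) in HBSS buffer with 0.5 mM IBMX for 18.5 min at room temperature. cAMP was read by TR-FRET (665/615 nm) as % of DMSO control; IC50 from 4-parameter fit, median of multiple experiments.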

T1 sequence (P43116 whole entry): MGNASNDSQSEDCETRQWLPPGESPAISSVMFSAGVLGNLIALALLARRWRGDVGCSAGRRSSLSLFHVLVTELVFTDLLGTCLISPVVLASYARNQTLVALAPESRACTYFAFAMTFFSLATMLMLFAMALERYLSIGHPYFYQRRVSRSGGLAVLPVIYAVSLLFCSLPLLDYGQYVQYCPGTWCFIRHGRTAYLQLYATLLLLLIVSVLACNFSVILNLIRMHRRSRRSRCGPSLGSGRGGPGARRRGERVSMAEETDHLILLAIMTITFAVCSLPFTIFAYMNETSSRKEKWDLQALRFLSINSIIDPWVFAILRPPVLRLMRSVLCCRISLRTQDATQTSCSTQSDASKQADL

Consider `Cc1sc(C)c(C(=O)NC2CC3(C2)CC(C(=O)O)C3)c1Cc1ccc(-c2cc(F)cc(S(C)(=O)=O)c2)cc1` (stereo not drawn) [Example 56, 6-(4-((3′-fluoro-5′-(methylsulfonyl)-[1,1′-biphenyl]-4-yl)methyl)-2,5-dimethylthiophene-3-carboxamido)spiro[3.3]heptane-2-carboxylic acid], for which the IC50 on hEP2 was greater than 10000 nM; at hEP4 it was 5000 to 10000 nM.

For the compound `Cc1sc(C)c(C(=O)NC2CC3(C2)CC(C(=O)O)C3)c1Cc1ccc(-c2cc(F)cc(C(N)=O)c2)cc1` (stereo not drawn) [Example 57, 6-(4-((3′-carbamoyl-5′-fluoro-[1,1′-biphenyl]-4-yl)methyl)-2,5-dimethylthiophene-3-carboxamido)spiro[3.3]heptane-2-carboxylic acid], the values for the IC50 at hEP2 and at hEP4 were 500 to 5000 nM and less than 500 nM, respectively.

For the compound `COc1cc(C(N)=O)cc(-c2ccc(Cc3c(C)sc(C)c3C(=O)NC3CC4(C3)CC(C(=O)O)C4)cc2)c1` (stereo not drawn) [Example 58, 6-(4-((3′-carbamoyl-5′-methoxy-[1,1′-biphenyl]-4-yl)methyl)-2,5-dimethylthiophene-3-carboxamido)spiro[3.3]heptane-2-carboxylic acid], the IC50 is 500 to 5000 nM at hEP2 and less than 500 nM at hEP4.

Regarding `COc1cc(CNC(=O)OC(C)(C)C)cc(-c2ccc(Cc3c(C)sc(C)c3C(=O)NC3CC4(C3)CC(C(=O)O)C4)cc2)c1` (stereo not drawn) [Example 59, 6-(4-((3′-(((tert-butoxycarbonyl)amino)methyl)-5′-methoxy-[1,1′-biphenyl]-4-yl)methyl)-2,5-dimethylthiophene-3-carboxamido)spiro[3.3]heptane-2-carboxylic acid], the IC50 at hEP2 was greater than 10000 nM; at hEP4 it was 500 to 5000 nM.

For `Cc1sc(C)c(C(=O)NC2CC3(C2)CC(C(=O)O)C3)c1Cc1ccc(-c2cc(F)cc(CO)c2)cc1` (stereo not drawn) [Example 60, 6-(4-((3′-fluoro-5′-(hydroxymethyl)-[1,1′-biphenyl]-4-yl)methyl)-2,5-dimethylthiophene-3-carboxamido)spiro[3.3]heptane-2-carboxylic acid], the IC50 at hEP2 was 5000 to 10000 nM; on hEP4, less than 500 nM.

Regarding `COc1cc(-c2ccc(Cc3c(C)sc(C)c3C(=O)NC3CC4(C3)CC(C(=O)O)C4)cc2)cc(C2(O)COC2)c1` (stereo not drawn) [Example 61, 6-(4-((3′-(3-hydroxyoxetane-3-yl)-5′-methoxy-[1,1′-biphenyl]-4-yl)methyl)-2,5-dimethylthiophene-3-carboxamido)spiro[3.3]heptane-2-carboxylic acid], the IC50 at hEP2 was greater than 10000 nM; at hEP4, 500 to 5000 nM.

In the case of `COc1cc(-c2ccc(Cc3c(C)sc(C)c3C(=O)NC3CC4(C3)CC(C(=O)O)C4)cc2)cc(N2CCC2=O)c1` (stereo not drawn) [Example 62, 6-(4-((3′-methoxy-5′-(2-oxoazetidin-1-yl)-[1,1′-biphenyl]-4-yl)methyl)-2,5-dimethylthiophene-3-carboxamido)spiro[3.3]heptane-2-carboxylic acid], the IC50 on hEP2 was 500 to 5000 nM; at hEP4 it was less than 500 nM.

For `[H][C@]1(C(=O)O)C[C@]2(C[C@H](NC(=O)c3c(C)sc(C)c3Cc3ccc(-c4cc(OC)cc(N5CCC5=O)c4)cc3)C2)C1` (stereo partly drawn) [Example 63, (2R,4R,6R)-6-(4-((3′-methoxy-5′-(2-oxoazetidin-1-yl)-[1,1′-biphenyl]-4-yl)methyl)-2,5-dimethylthiophene-3-carboxamido)spiro[3.3]heptane-2-carboxylic acid], the 50% inhibitory concentration (IC50) on hEP2 and at hEP4 was less than 500 nM in each case.

On to `Cc1sc(C)c(C(=O)NC2CC3(C2)CC(C(=O)O)C3)c1Cc1ccc(-c2cc(F)cc(CN)c2)cc1` (stereo not drawn) [Example 64, 6-(4-((3′-(aminomethyl)-5′-fluoro-[1,1′-biphenyl]-4-yl)methyl)-2,5-dimethylthiophene-3-carboxamido)spiro[3.3]heptane-2-carboxylic acid], for which the results for the IC50 on hEP2 and on hEP4 were greater than 10000 nM and 500 to 5000 nM, respectively.

In the case of `Cc1sc(C)c(C(=O)NC2CC3(C2)CC(C(=O)O)C3)c1Cc1ccc(-c2cc(F)cc(C3CNC3)c2)cc1` (stereo not drawn) [Example 65, 6-(4-((3′-(azetidin-3-yl)-5′-fluoro-[1,1′-biphenyl]-4-yl)methyl)-2,5-dimethylthiophene-3-carboxamido)spiro[3.3]heptane-2-carboxylic acid], the IC50 on hEP2 was greater than 10000 nM; on hEP4, 500 to 5000 nM.

Regarding `COc1cc(CN)cc(-c2ccc(Cc3c(C)sc(C)c3C(=O)NC3CC4(C3)CC(C(=O)O)C4)cc2)c1` (stereo not drawn) [Example 66, 6-(4-((3′-(aminomethyl)-5′-methoxy-[1,1′-biphenyl]-4-yl)methyl)-2,5-dimethylthiophene-3-carboxamido)spiro[3.3]heptane-2-carboxylic acid], the IC50 at hEP2 is greater than 10000 nM; at hEP4, 500 to 5000 nM.

`Cc1sc(C)c(C(=O)NC2CC3(C2)CC(C(=O)O)C3)c1Cc1ccc(C2CCCCC2)cc1` (stereo not drawn) [Example 67, 6-(4-(4-cyclohexylbenzyl)-2,5-dimethylthiophene-3-carboxamido)spiro[3.3]heptane-2-carboxylic acid]: the IC50 was greater than 10000 nM on hEP2 and 5000 to 10000 nM at hEP4.

Consider `Cc1sc(C)c(C(=O)NC2CC3(C2)CC(C(=O)O)C3)c1Cc1ccc(C2CCNCC2)cc1` (stereo not drawn) [Example 68, 6-(2,5-dimethyl-4-(4-(piperidin-4-yl)benzyl)thiophene-3-carboxamido)spiro[3.3]heptane-2-carboxylic acid], for which the IC50 at hEP2 and at hEP4 was greater than 10000 nM throughout.

Regarding `Cc1sc(C)c(C(=O)NC2CC3(C2)CC(C(=O)O)C3)c1Cc1ccc(-c2ccc(F)cc2)cc1` (stereo not drawn) [Example 69, 6-(4-((4′-fluoro-[1,1′-biphenyl]-4-yl)methyl)-2,5-dimethylthiophene-3-carboxamido)spiro[3.3]heptane-2-carboxylic acid], the IC50 at hEP2 is 500 to 5000 nM; on hEP4 it was less than 500 nM.

As for `Cc1sc(C)c(C(=O)NC2CC3(C2)CC(C(=O)O)C3)c1Cc1ccc(-c2cc(F)cc(C#N)c2)cc1` (stereo not drawn) [Example 70, 6-(4-((3′-cyano-5′-fluoro-[1,1′-biphenyl]-4-yl)methyl)-2,5-dimethylthiophene-3-carboxamido)spiro[3.3]heptane-2-carboxylic acid], the IC50 is 5000 to 10000 nM at hEP2 and less than 500 nM at hEP4.

Take `Cc1sc(C)c(C(=O)NC2CC3(C2)CC(C(=O)O)C3)c1Cc1ccc(-c2cc(O)cc(F)c2)cc1` (stereo not drawn) [Example 71, 6-(4-((3′-fluoro-5′-hydroxy-[1,1′-biphenyl]-4-yl)methyl)-2,5-dimethylthiophene-3-carboxamido)spiro[3.3]heptane-2-carboxylic acid]: the IC50 at hEP2 was 500 to 5000 nM; on hEP4 it was less than 500 nM.

Consider `Cc1sc(C)c(C(=O)NC2CC3(C2)CC(C(=O)O)C3)c1Cc1ccc(-c2ccnc(O)c2)cc1` (stereo not drawn) [Example 72, 6-(4-(4-(2-hydroxypyridin-4-yl)benzyl)-2,5-dimethylthiophene-3-carboxamido)spiro[3.3]heptane-2-carboxylic acid], for which the IC50 on hEP2 and on hEP4 was greater than 10000 nM in each case.

Take `Cc1sc(C)c(C(=O)N(C)C2CC3(CC(C(=O)O)C3)C2)c1Cc1ccc(-c2ccccc2)cc1` (stereo not drawn) [Example 73, 6-(4-([1,1′-biphenyl]-4-ylmethyl)-N,2,5-trimethylthiophene-3-carboxamido)spiro[3.3]heptane-2-carboxylic acid]: the IC50 on hEP2 and at hEP4 was greater than 10000 nM throughout.

`Cc1sc(C)c(C(=O)NC2CC3(C2)CC(C(=O)O)C3)c1Oc1ccc(-c2ccccc2)cc1` (stereo not drawn) [Example 74, 6-(4-([1,1′-biphenyl]-4-yloxy)-2,5-dimethylthiophene-3-carboxamido)spiro[3.3]heptane-2-carboxylic acid]: the IC50 on hEP2 and on hEP4 was greater than 10000 nM throughout.

In the case of `Cc1sc(C)c(C(=O)NC2CC3(C2)CC(C(=O)O)C3)c1Nc1ccc(-c2ccccc2)cc1` (stereo not drawn) [Example 75, 6-(4-([1,1′-biphenyl]-4-ylamino)-2,5-dimethylthiophene-3-carboxamido)spiro[3.3]heptane-2-carboxylic acid], the IC50 at hEP2 and at hEP4 was greater than 10000 nM each time.

As to `Cc1sc(C)c(N(C)c2ccc(-c3ccccc3)cc2)c1C(=O)NC1CC2(C1)CC(C(=O)O)C2` (stereo not drawn) [Example 76, 6-(4-([1,1′-biphenyl]-4-yl(methyl)amino)-2,5-dimethylthiophene-3-carboxamido)spiro[3.3]heptane-2-carboxylic acid], the IC50 on hEP2 was greater than 10000 nM; at hEP4 it was 500 to 5000 nM.

Take `Cc1sc(C)c(C(=O)NC2CC3(C2)CC(C(=O)O)C3)c1CN1CCN(c2ccccc2)CC1` (stereo not drawn) [Example 77, 6-(2,5-dimethyl-4-((4-phenylpiperazin-1-yl)methyl)thiophene-3-carboxamido)spiro[3.3]heptane-2-carboxylic acid]: the IC50 on hEP2 and on hEP4 was greater than 10000 nM throughout.

`Cc1sc(C)c(C(=O)NC2CC3(C2)CC(C(=O)O)C3)c1Cn1cc(-c2ccccc2)cn1` (stereo not drawn) [Example 78, 6-(2,5-dimethyl-4-((4-phenyl-1H-pyrazol-1-yl)methyl)thiophene-3-carboxamido)spiro[3.3]heptane-2-carboxylic acid]: the figures for the IC50 at hEP2 and at hEP4 were greater than 10000 nM and 5000 to 10000 nM, respectively.

For the compound `O=C(NC1CC2(C1)CC(C(=O)O)C2)c1csc2ccn(Cc3ccc(-c4ccccc4)cc3)c12` (stereo not drawn) [Example 79, 6-(4-([1,1′-biphenyl]-4-ylmethyl)-4H-thieno[3,2-b]pyrrole-3-carboxamido)spiro[3.3]heptane-2-carboxylic acid], the IC50 at hEP2 and at hEP4 was less than 500 nM in each case.

The values above are taken from patent US20230365582A1, “NOVEL COMPOUNDS HAVING INHIBITORY ACTIVITY ON PROSTAGLANDIN E2 RECEPTOR AND USES THEREOF” (KANAPH THERAPEUTICS INC., priority 2020, published 2023).
